Assay [1] concerns the target human α‐thrombin (factor IIa) (Homo sapiens, UniProt P00734). Type of assay: biochemical.
The next assay deals with human β‐FXIIa (Homo sapiens, UniProt P00748). Format: biochemical.
A further assay has as its target porcine trypsin (Sus scrofa, UniProt P00761). Kind of assay: Trypsin inhibition assay, fluorogenic substrate Z‐Gly‐Gly‐Arg‐AMC. Format: biochemical. The following applies: for inhibition at 5 µM: read-out: Trypsin inhibition % at 5 μM.
Another assay concerns the target human Factor Xa (Homo sapiens, UniProt P00742). Kind of assay: FXa inhibition assay, fluorogenic substrate Boc‐Ile‐Glu‐Gly‐Arg‐AMC. Format: biochemical.
The next assay addresses FXIIa (Homo sapiens, UniProt P00748). Kind of assay: Medium‐throughput screening. Type of assay: biochemical. The following applies: read-out: Inhibition @100 nM [in MTS] FXIIa.
A further assay concerns the target thrombin (FIIa) (Homo sapiens, UniProt P00734). Kind of assay: Medium‐throughput screening. Type of assay: biochemical. The settings on record: read-out: Inhibition @100 nM [in MTS] FIIa.
Another assay deals with human pooled plasma. Kind of assay: In vitro plasma coagulation assay, activated partial thromboplastin time. The following applies: 200 μM, fold increase compared to DMSO.

Structures are written as SMILES.

These results are taken from paper PMC9292294 (Chemmedchem, 2021).

Sequence of human β‐FXIIa (P00748 373-615 limits assumed, other chains not shown): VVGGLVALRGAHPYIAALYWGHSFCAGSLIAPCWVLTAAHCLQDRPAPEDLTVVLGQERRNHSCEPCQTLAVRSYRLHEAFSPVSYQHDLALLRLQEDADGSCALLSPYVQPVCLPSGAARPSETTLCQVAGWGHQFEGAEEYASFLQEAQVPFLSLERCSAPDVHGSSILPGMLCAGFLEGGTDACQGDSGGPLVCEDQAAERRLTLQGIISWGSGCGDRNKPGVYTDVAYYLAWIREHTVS
Sequence of FXIIa (P00748 373-615 limits assumed, other chains not shown): as above
Sequence of human Factor Xa (P00742 235-488 limits assumed): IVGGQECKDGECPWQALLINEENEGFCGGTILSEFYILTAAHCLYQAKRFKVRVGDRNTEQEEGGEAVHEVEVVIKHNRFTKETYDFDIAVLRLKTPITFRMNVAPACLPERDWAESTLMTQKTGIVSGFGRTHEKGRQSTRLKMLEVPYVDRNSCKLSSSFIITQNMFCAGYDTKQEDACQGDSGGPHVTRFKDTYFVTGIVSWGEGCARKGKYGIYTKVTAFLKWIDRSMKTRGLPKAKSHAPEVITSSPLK
Sequence of human Factor Xa (P00742 41-179 limits assumed): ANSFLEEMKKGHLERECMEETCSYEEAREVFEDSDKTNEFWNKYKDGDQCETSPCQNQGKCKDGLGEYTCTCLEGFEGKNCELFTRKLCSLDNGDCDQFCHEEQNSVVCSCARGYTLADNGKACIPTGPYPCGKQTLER
Sequence of porcine trypsin (P00761 9-231): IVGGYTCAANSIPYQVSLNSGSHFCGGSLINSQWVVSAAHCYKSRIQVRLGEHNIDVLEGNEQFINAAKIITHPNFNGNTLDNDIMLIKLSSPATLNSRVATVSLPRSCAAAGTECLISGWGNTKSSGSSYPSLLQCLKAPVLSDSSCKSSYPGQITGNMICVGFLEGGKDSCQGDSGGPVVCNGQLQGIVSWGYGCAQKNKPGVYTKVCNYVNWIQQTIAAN

What is called IC50 is the concentration needed to halve the response being measured. Turning to `Nc1nc(-c2nccc3ccccc23)nn1C(=O)c1ccccc1` [41 a, (5‐Amino‐3‐(isoquinolin‐1‐yl)‐1H‐1,2,4‐triazol‐1‐yl)(phenyl)methanone], the concentration for half-maximal inhibition (IC50) was 0.063 ± 0.001 µM in assay [1], 0.236 ± 0.005 µM at human β‐FXIIa, more than 5 µM on porcine trypsin and more than 5 µM on human Factor Xa.

For the compound `Nc1nc(-c2nccc3ccccc23)nn1C(=O)c1ccc2ccccc2c1` [41 c, (5‐Amino‐3‐(isoquinolin‐1‐yl)‐1H‐1,2,4‐triazol‐1‐yl)(naphthalen‐2‐yl)methanone], the IC50 against human β‐FXIIa, against porcine trypsin and on human Factor Xa was more than 5 µM in each case.

By inhibition is commonly meant the drop in the measured response relative to a control, in per cent. For `[H]/N=C(/N)c1ccc(NCc2nc3cc(C(=O)N(CCC(=O)O)c4ccccn4)ccc3n2C)cc1` [Dabigatran, reference compound], the IC50 against human β‐FXIIa is more than 5 µM. Also, the inhibition at 5 µM at porcine trypsin was 59%. Further, the inhibition at 0.1 µM at FXIIa was -1%; at thrombin (FIIa) it was 91%. In addition, the inhibition at 1 µM on human Factor Xa (read-out: FXa inhibition % at 1 μM) was 34%.

Turning to `Nc1nc(-c2ccc(F)cc2)nn1C(=O)[C@H]1CCCc2ccccc21` [33 f, (S)‐(5‐Amino‐3‐(4‐fluorophenyl)‐1H‐1,2,4‐triazol‐1‐yl)(1,2,3,4‐tetrahydronaphthalen‐1‐yl)‐methanone], the IC50 in assay [1] is more than 5 µM; on human β‐FXIIa, approximately 2 µM; at porcine trypsin it was more than 5 µM; against human Factor Xa, more than 5 µM. For the same compound, the inhibition at 0.1 µM on FXIIa worked out at 29%; at thrombin (FIIa), 0%.

For `Cc1nc2ccccc2nc1-c1nc(N)n(C(=O)[C@H]2CCCc3ccccc32)n1` [33 h, (S)‐(5‐Amino‐3‐(3‐methylquinoxalin‐2‐yl)‐1H‐1,2,4‐triazol‐1‐yl)(1,2,3,4‐tetrahydronaphthalen‐1‐yl)methanone], the IC50 in assay [1] was more than 5 µM; on human β‐FXIIa it was 0.122 ± 0.035 µM; against porcine trypsin, more than 5 µM; against human Factor Xa, more than 5 µM. In addition, the inhibition at 0.1 µM on FXIIa turned out to be 81%; at thrombin (FIIa), 0%.

Take `Cc1cccc(-c2nc(N)n(C(=O)Cc3ccccc3I)n2)n1` [32 b, 1‐(5‐Amino‐3‐(6‐methylpyridin‐2‐yl)‐1H‐1,2,4‐triazol‐1‐yl)‐2‐(2‐iodophenyl)ethan‐1‐one]: the IC50 in assay [1] is more than 5 µM; at human β‐FXIIa, 0.073 ± 0.022 µM; against porcine trypsin it was more than 5 µM; against human Factor Xa it was more than 5 µM. The inhibition at 0.1 µM at FXIIa was determined as 54%; at thrombin (FIIa) it was 0%.

Regarding `Nc1nc(-c2cnc3ccccc3n2)nn1C(=O)[C@H]1CCCc2ccccc21` [39 a, (S)‐(5‐Amino‐3‐(quinoxalin‐2‐yl)‐1H‐1,2,4‐triazol‐1‐yl)(1,2,3,4‐tetrahydronaphthalen‐1‐yl)‐methanone], the results for the half-maximal inhibitory concentration (IC50) (in assay [1]; on human β‐FXIIa; against human Factor Xa) were more than 5 µM, 0.033 ± 0.007 µM and more than 5 µM, respectively. For the same compound, the “fold improved FXIIa inhibitory activity” value on human β‐FXIIa (versus parent 33 h (122 nM vs. 33 nM)) turned out to be 3.7 fold. Also, on porcine trypsin, the inhibition at 5 µM is 32%.

With `Nc1nc(-c2ccc3ccccc3n2)nn1C(=O)c1cccc2ccccc12` [40 b, (5‐Amino‐3‐(quinolin‐2‐yl)‐1H‐1,2,4‐triazol‐1‐yl)(naphthalen‐1‐yl)methanone], the IC50 was 0.348 ± 0.015 µM in assay [1], 0.008 ± 0.002 µM against human β‐FXIIa and more than 5 µM against porcine trypsin.

As for `Nc1nc(-c2ccccc2C(=O)N2CCCCC2)nn1C(=O)[C@H]1CCCc2ccccc21` [33 j, (S)‐(2‐(5‐Amino‐1‐(1,2,3,4‐tetrahydronaphthalene‐1‐carbonyl)‐1H‐1,2,4‐triazol‐3‐yl)phenyl)‐(piperidin‐1‐yl)methanone], the IC50 is 5.7 ± 0.33 µM in assay [1], 1.52 ± 0.182 µM on human β‐FXIIa, more than 5 µM against porcine trypsin and more than 5 µM against human Factor Xa. The inhibition at 0.1 µM on FXIIa was found to be 8%; at thrombin (FIIa) it was 1%.

On to `Nc1nc(-c2cnccn2)nn1C(=O)Cc1ccccc1I` [32 c, 1‐(5‐Amino‐3‐(pyrazin‐2‐yl)‐1H‐1,2,4‐triazol‐1‐yl)‐2‐(2‐iodophenyl)ethan‐1‐one], for which the IC50 in assay [1] was 1.69 ± 0.167 µM; against human β‐FXIIa, 0.065 ± 0.009 µM; against porcine trypsin it was more than 5 µM; against human Factor Xa it was more than 5 µM. The inhibition at 0.1 µM on FXIIa is 75%; on thrombin (FIIa) it was 15%.

For `Nc1nc(-c2nccc3ccccc23)nn1C(=O)[C@H]1CCCc2ccccc21` [33 i, (S)‐(5‐Amino‐3‐(isoquinolin‐1‐yl)‐1H‐1,2,4‐triazol‐1‐yl)(1,2,3,4‐tetrahydronaphthalen‐1‐yl)‐methanone], the half-maximal inhibitory concentration (IC50) in assay [1] was 0.038 ± 0.009 µM; at human β‐FXIIa it was 0.547 ± 0.058 µM; at porcine trypsin, more than 5 µM; on human Factor Xa it was more than 5 µM. Moreover, the inhibition at 0.1 µM on FXIIa came to 14%; on thrombin (FIIa), 62%.

As for `Nc1nc(-c2ccccn2)nn1C(=O)[C@H]1CCCc2ccccc21` [33 a, (S)‐(5‐Amino‐3‐(pyridin‐2‐yl)‐1H‐1,2,4‐triazol‐1‐yl)(1,2,3,4‐tetrahydro‐naphthalen‐1‐yl)‐methanone], the 50% inhibitory concentration (IC50) on porcine trypsin was more than 5 µM. Moreover, the inhibition at 0.1 µM on FXIIa came to 73%; at thrombin (FIIa) it was 10%.

Consider `Nc1nc(-c2ccc3ccccc3n2)nn1C(=O)c1ccccc1` [40 a, (5‐Amino‐3‐(quinoline‐2‐yl)‐1H‐1,2,4‐triazol‐1‐yl)(phenyl)methanone], for which the IC50 in assay [1] was 0.124 ± 0.01 µM; against human β‐FXIIa, 0.013 ± 0.002 µM; at porcine trypsin, more than 5 µM; on human Factor Xa, more than 5 µM.

`O=C(NC[C@H]1CN(c2ccc(N3CCOCC3=O)cc2)C(=O)O1)c1ccc(Cl)s1` [Rivaroxaban, reference compound]: the IC50 on human β‐FXIIa and against porcine trypsin was more than 5 µM in each case. Moreover, the inhibition at 0.1 µM on FXIIa was -1%; on thrombin (FIIa), 1%.

For `Cc1cccc(-c2nc(N)n(C(=O)[C@H]3CCCc4ccccc43)n2)n1` [33 b, (S)‐(5‐Amino‐3‐(6‐methylpyridin‐2‐yl)‐1H‐1,2,4‐triazol‐1‐yl)(1,2,3,4‐tetrahydronaphthalen‐1‐yl)‐methanone], the IC50 is 0.819 ± 0.015 µM in assay [1], 0.214 ± 0.035 µM on human β‐FXIIa, more than 5 µM at porcine trypsin and more than 5 µM on human Factor Xa. The figures for the inhibition at 0.1 µM on FXIIa and on thrombin (FIIa) were 36% and 5%, respectively.

For the compound `Cc1nc(-c2cccs2)ccc1-c1nc(N)n(C(=O)Cc2ccccc2I)n1` [32 d, 1‐(5‐Amino‐3‐(2‐methyl‐6‐(thiophen‐2‐yl)pyridin‐3‐yl)‐1H‐1,2,4‐triazol‐1‐yl)‐2‐(2‐iodophenyl)‐ethan‐1‐one], the IC50 is more than 5 µM in assay [1], 0.716 ± 0.082 µM at human β‐FXIIa, more than 5 µM on porcine trypsin and more than 5 µM on human Factor Xa. The results for the inhibition at 0.1 µM at FXIIa and on thrombin (FIIa) were 8% and 0%, respectively.

In turn, `Nc1nc(-c2ccccn2)nn1C(=O)Cc1ccccc1I` [32 a, 1‐(5‐Amino‐3‐(pyridin‐2‐yl)‐1H‐1,2,4‐triazol‐1‐yl)‐2‐(2‐iodophenyl)ethan‐1‐one] showed an IC50 at porcine trypsin of more than 5 µM. Moreover, the results for the inhibition at 0.1 µM on FXIIa and on thrombin (FIIa) were 54% and 2%, respectively.

In the case of `CC(C)(C)c1nc(N)n(C(=O)[C@H]2CCCc3ccccc32)n1` [33 e, (S)‐(5‐Amino‐3‐(tert‐butyl)‐1H‐1,2,4‐triazol‐1‐yl)(1,2,3,4‐tetrahydronaphthalen‐1‐yl)methanone], the IC50 (in assay [1]; on human β‐FXIIa; at porcine trypsin; against human Factor Xa) was more than 5 µM each time. Moreover, the values for the inhibition at 0.1 µM on FXIIa and at thrombin (FIIa) were 0% and 1%, respectively.

Regarding `Cc1nc(-c2cccs2)ccc1-c1nc(N)n(C(=O)[C@H]2CCCc3ccccc32)n1` [33 d, (S)‐(5‐Amino‐3‐(2‐methyl‐6‐(thiophen‐2‐yl)pyridin‐3‐yl)‐1H‐1,2,4‐triazol‐1‐yl)(1,2,3,4‐tetrahydro‐naphthalen‐1‐yl)methanone], the IC50 in assay [1] was more than 5 µM; on human β‐FXIIa, 1.14 ± 0.334 µM; at porcine trypsin it was more than 5 µM; against human Factor Xa, more than 5 µM. For the same compound, the inhibition at 0.1 µM at FXIIa came to 26%; at thrombin (FIIa) it was 0%.

`Nc1nc(-c2cnccn2)nn1C(=O)[C@H]1CCCc2ccccc21` [33 c, (S)‐(5‐Amino‐3‐(pyrazin‐2‐yl)‐1H‐1,2,4‐triazol‐1‐yl)(1,2,3,4‐tetrahydronaphthalen‐1‐yl)methanone]: the half-maximal inhibitory concentration (IC50) in assay [1] was 0.143 ± 0.005 µM; against human β‐FXIIa, 0.106 ± 0.013 µM; at porcine trypsin, more than 5 µM; on human Factor Xa, more than 5 µM. Further, the “aPTT, fold” value in the assay on human pooled plasma is listed as 2.7 fold. Also, the inhibition at 0.1 µM on FXIIa turned out to be 80%; at thrombin (FIIa) it was 36%.

For the compound `CC(C)(C)c1nc(N)n(C(=O)Cc2ccccc2I)n1` [32 e, 1‐(5‐Amino‐3‐(tert‐butyl)‐1H‐1,2,4‐triazol‐1‐yl)‐2‐(2‐iodophenyl)ethan‐1‐one], the IC50 (in assay [1]; on human β‐FXIIa; against porcine trypsin; at human Factor Xa) was more than 5 µM each time. Further, the inhibition at 0.1 µM worked out at 3% on FXIIa and 1% at thrombin (FIIa).

For `Nc1nc(-c2cnc3ccccc3n2)nn1C(=O)c1cccc2ccccc12` [39 b, (5‐Amino‐3‐(quinoxalin‐2‐yl)‐1H‐1,2,4‐triazol‐1‐yl)(naphthalen‐1‐yl)methanone], the IC50 (in assay [1]; against porcine trypsin; against human Factor Xa) was more than 5 µM each time.
